In PubChem BioAssay AID248 (DTP/NCI, 2004):
Toxic doses and inconclusive results are not listed. Rule as the data show it: active = T/C of 150% or more; inactive = T/C below 125%.

Tested on: L1210 leukemia ip in BDF1 mice, survival T/C
Assay: NCI In Vivo Anticancer Drug Screen. Data for tumor model L1210 Leukemia (intraperitoneal) in B6D2F1 (BDF1) mice
Settings: endpoint: mean survival time, higher = longer survival
Procedure, shortened: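 Mice bearing the transplanted tumor received compound or vehicle. Survival of the treated group was divided by that of the vehicle-treated control group to give the ratio.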

[1] = dose: 100.0 mg/kg/injection, schedule: Q01DX001 (ip), vehicle: carboxymethylcellulose (CMC)
[2] = dose: 200.0 mg/kg/injection, schedule: Q01DX001 (ip), vehicle: carboxymethylcellulose (CMC)
[3] = dose: 400.0 mg/kg/injection, schedule: Q01DX001 (ip), vehicle: carboxymethylcellulose (CMC)
[4] = dose: 100.0 mg/kg/injection, schedule: Q01DX001 (ip), vehicle: saline
[5] = dose: 100.0 mg/kg/injection, schedule: Q04DX002 (ip), vehicle: Klucel (hydroxypropylcellulose) (HPC)
[6] = dose: 200.0 mg/kg/injection, schedule: Q04DX002 (ip), vehicle: Klucel (hydroxypropylcellulose) (HPC)
[7] = dose: 400.0 mg/kg/injection, schedule: Q04DX002 (ip), vehicle: Klucel (hydroxypropylcellulose) (HPC)
[8] = dose: 100.0 mg/kg/injection, schedule: Q04DX003 (ip), vehicle: saline with Tween-80
[9] = dose: 200.0 mg/kg/injection, schedule: Q04DX003 (ip), vehicle: saline with Tween-80
[10] = dose: 400.0 mg/kg/injection, schedule: Q04DX003 (ip), vehicle: saline with Tween-80
[11] = dose: 100.0 mg/kg/injection, schedule: Q04DX003 (ip), vehicle: Klucel (hydroxypropylcellulose) (HPC)
[12] = dose: 200.0 mg/kg/injection, schedule: Q04DX003 (ip), vehicle: Klucel (hydroxypropylcellulose) (HPC)
[13] = dose: 400.0 mg/kg/injection, schedule: Q04DX003 (ip), vehicle: Klucel (hydroxypropylcellulose) (HPC)
[14] = dose: 200.0 mg/kg/injection, schedule: Q01DX001 (ip), vehicle: saline
[15] = dose: 400.0 mg/kg/injection, schedule: Q01DX001 (ip), vehicle: saline
[16] = dose: 100.0 mg/kg/injection, schedule: Q01DX009 (ip), vehicle: Klucel (hydroxypropylcellulose) (HPC)
[17] = dose: 200.0 mg/kg/injection, schedule: Q01DX009 (ip), vehicle: Klucel (hydroxypropylcellulose) (HPC)
[18] = dose: 400.0 mg/kg/injection, schedule: Q01DX009 (ip), vehicle: Klucel (hydroxypropylcellulose) (HPC)
[19] = dose: 25.0 mg/kg/injection, schedule: Q01DX009 (ip), vehicle: saline with Tween-80
[20] = dose: 50.0 mg/kg/injection, schedule: Q01DX009 (ip), vehicle: saline with Tween-80
[21] = dose: 100.0 mg/kg/injection, schedule: Q01DX009 (ip), vehicle: saline with Tween-80
[22] = dose: 100.0 mg/kg/injection, schedule: Q01DX001 (ip), vehicle: Klucel (hydroxypropylcellulose) (HPC)
[23] = dose: 200.0 mg/kg/injection, schedule: Q01DX001 (ip), vehicle: Klucel (hydroxypropylcellulose) (HPC)
[24] = dose: 400.0 mg/kg/injection, schedule: Q01DX001 (ip), vehicle: Klucel (hydroxypropylcellulose) (HPC)
[25] = dose: 200.0 mg/kg/injection, schedule: Q01DX009 (ip), vehicle: saline with Tween-80
[26] = dose: 400.0 mg/kg/injection, schedule: Q01DX009 (ip), vehicle: saline with Tween-80

Measured: T/C

Cc1cc(=O)cc(S)[nH]1
inactive: [1] 94 % of control | [2] 100 % of control | [3] 91 % of control

NC(=O)c1ccc([N+](=O)[O-])cc1C(N)=O
inactive: dose: 25.0 mg/kg/injection, schedule: Q01DX001 (ip), vehicle: saline 111 % of control | dose: 50.0 mg/kg/injection, schedule: Q01DX001 (ip), vehicle: saline 97 % of control | [4] 104 % of control

NC(CSS(=O)(=O)O)=NCc1ccccn1
inactive: [5] 95 % of control | [6] 101 % of control | [7] 98 % of control

OCCNc1ncnc2ccccc12
inactive: [8] 98 % of control | [9] 104 % of control | [10] 104 % of control

CCCCNC(N)=S
inactive: [11] 98 % of control | [12] 104 % of control | [13] 102 % of control

COc1ccc(NCC(O)CN2CCCC2)cc1 (configuration not stated)
inactive: [4] 112 % of control | [14] 104 % of control

COc1ccc(C(=O)c2cc3cccc(OC)c3o2)cc1OC
inactive: dose: 75.0 mg/kg/injection, schedule: Q01DX009 (ip), vehicle: saline 87 % of control | [4] 102 % of control | dose: 150.0 mg/kg/injection, schedule: Q01DX009 (ip), vehicle: saline 92 % of control | [14] 94 % of control | dose: 300.0 mg/kg/injection, schedule: Q01DX009 (ip), vehicle: saline 93 % of control | [15] 93 % of control

Cc1c2ccc(=O)cc-2oc2cc(O)ccc12
inactive: [11] 92 % of control | [12] 94 % of control | [13] 87 % of control

CCC(=O)NC
inactive: dose: 100.0 mg/kg/injection, schedule: Q01DX001 (ip), vehicle: acetone 100 % of control | dose: 100.0 mg/kg/injection, schedule: Q01DX009 (ip), vehicle: acetone 101 % of control | dose: 200.0 mg/kg/injection, schedule: Q01DX001 (ip), vehicle: acetone 100 % of control | dose: 200.0 mg/kg/injection, schedule: Q01DX009 (ip), vehicle: acetone 97 % of control | dose: 400.0 mg/kg/injection, schedule: Q01DX001 (ip), vehicle: acetone 100 % of control | dose: 400.0 mg/kg/injection, schedule: Q01DX009 (ip), vehicle: acetone 100 % of control | dose: 555.0 mg/kg/injection, schedule: Q01DX015 (ip), vehicle: water 102 % of control | dose: 833.0 mg/kg/injection, schedule: Q01DX015 (ip), vehicle: water 115 % of control | dose: 1000.0 mg/kg/injection, schedule: Q01DX001 (ip), vehicle: water 98 % of control | dose: 1500.0 mg/kg/injection, schedule: Q01DX001 (ip), vehicle: water 104 % of control | dose: 2000.0 mg/kg/injection, schedule: Q01DX001 (ip), vehicle: water 113 % of control

COc1ccccc1C(=O)Nc1ccccc1SC
inactive: [5] 93 % of control | [6] 93 % of control | [7] 93 % of control

CCOC(CCc1c(-c2ccccc2)nc(NC(C)=O)[nH]c1=O)OCC
inactive: [16] 105 % of control | [17] 100 % of control | [18] 92 % of control

CCNc1nnnn1CC
inactive: dose: 100.0 mg/kg/injection, schedule: Q04DX003 (ip), vehicle: saline 101 % of control | dose: 200.0 mg/kg/injection, schedule: Q04DX003 (ip), vehicle: saline 98 % of control | dose: 400.0 mg/kg/injection, schedule: Q04DX003 (ip), vehicle: saline 101 % of control

Fc1c(F)c(-c2c(F)c(F)c(S)c(F)c2F)c(F)c(F)c1S
inactive: dose: 100.0 mg/kg/injection, schedule: Q04DX002 (ip), vehicle: saline with Tween-80 88 % of control | dose: 200.0 mg/kg/injection, schedule: Q04DX002 (ip), vehicle: saline with Tween-80 98 % of control

NNc1cnc2ccccc2n1
inactive: dose: 100.0 mg/kg/injection, schedule: Q01DX009 (ip), vehicle: saline sonified 90 % of control | [8] 101 % of control | [9] 97 % of control | [10] 113 % of control

C=C1CC2(c3ccccc3)C(=O)C1(c1ccccc1)C(c1ccccc1)=C2c1ccccc1 (configuration not stated)
inactive: dose: 50.0 mg/kg/injection, schedule: Q01DX001 (ip), vehicle: carboxymethylcellulose (CMC) 96 % of control | [2] 90 % of control | [3] 89 % of control

N#CC1C(=O)c2ccccc2C1=O
inactive: [19] 92 % of control | [20] 91 % of control | [21] 89 % of control | [8] 94 % of control

CC(C)(C)CC(C)(C)N(CSc1ccc2ccccc2c1)CSc1ccc2ccccc2c1
inactive: [4] 98 % of control | [14] 98 % of control | [15] 91 % of control

COC(=O)C1C2C=CC(C2=C(c2ccccc2)c2ccccc2)C1C(=O)OC (configuration not stated)
inactive: [22] 98 % of control | [16] 96 % of control | [11] 107 % of control | [23] 97 % of control | [17] 102 % of control | [12] 100 % of control | [24] 92 % of control | [18] 96 % of control | [13] 100 % of control

OCCSC(SCCO)=C(SCCO)SCCO
inactive: [16] 105 % of control | [11] 97 % of control | [17] 102 % of control | [12] 92 % of control | [18] 96 % of control | [13] 94 % of control

CC(Oc1cc(Cl)c(Cl)cc1Cl)C(=O)OCc1ccco1 (configuration not stated)
inactive: [21] 110 % of control | [5] 100 % of control | [25] 100 % of control | [6] 103 % of control | [26] 104 % of control | [7] 100 % of control

CC1CCCC(C)N1NC1=NCCO1 (configuration not stated)
inactive: [19] 96 % of control | [20] 98 % of control | [21] 97 % of control | [8] 100 % of control

CCCCNc1ncnc2c1nnn2C1OC(CO)C(O)C1O (configuration not stated)
inactive: dose: 12.5 mg/kg/injection, schedule: Q04DX002 (ip), vehicle: Klucel (hydroxypropylcellulose) (HPC) 100 % of control | dose: 25.0 mg/kg/injection, schedule: Q04DX002 (ip), vehicle: Klucel (hydroxypropylcellulose) (HPC) 94 % of control | dose: 50.0 mg/kg/injection, schedule: Q04DX002 (ip), vehicle: Klucel (hydroxypropylcellulose) (HPC) 97 % of control

CCCCCCCCCCCCCCCC(CCCC)c1ccccc1 (configuration not stated)
inactive: dose: 100.0 mg/kg/injection, schedule: Q01DX001 (ip), vehicle: saline + alcohol 91 % of control | dose: 200.0 mg/kg/injection, schedule: Q01DX001 (ip), vehicle: saline + alcohol 100 % of control | dose: 400.0 mg/kg/injection, schedule: Q01DX001 (ip), vehicle: saline + alcohol 96 % of control

N=c1nc(N)c(N)c(N)n1O
inactive: [1] 94 % of control | [2] 97 % of control | [3] 97 % of control

CC1/C(=N\O)CC2C3(C)CCC2(C(C)C(=O)O)C(=O)C13 (configuration not stated)
inactive: [22] 100 % of control | [23] 100 % of control | [24] 92 % of control

CCCC(=O)OC1CC(C)CCC1C(C)C (configuration not stated)
inactive: dose: 25.6 mg/kg/injection, schedule: Q04DX002 (ip), vehicle: saline with Tween-80 96 % of control | dose: 64.0 mg/kg/injection, schedule: Q04DX002 (ip), vehicle: saline with Tween-80 96 % of control | [21] 90 % of control | [8] 88 % of control | dose: 160.0 mg/kg/injection, schedule: Q04DX002 (ip), vehicle: saline with Tween-80 92 % of control | [25] 94 % of control | [9] 94 % of control | [26] 92 % of control | dose: 400.0 mg/kg/injection, schedule: Q04DX002 (ip), vehicle: saline with Tween-80 96 % of control | [10] 100 % of control

O=[N+]([O-])c1cc(Cl)cc2c1nc(NCCO)c1ccccc12
inactive: dose: 25.0 mg/kg/injection, schedule: Q01DX009 (ip), vehicle: Klucel (hydroxypropylcellulose) (HPC) 95 % of control | dose: 50.0 mg/kg/injection, schedule: Q01DX009 (ip), vehicle: Klucel (hydroxypropylcellulose) (HPC) 97 % of control | [11] 97 % of control
